# From patent publication US11992478B2, “Methods of using androgen receptor inhibitors as cancer therapeutics” (THE TRUSTEES OF THE UNIVERSITY OF PENNSYLVANIA, priority 2020, dated 2024)
# Columns and labels:
# melanoma cells = assay: Testosterone-induced hyperproliferation in melanoma cells (FIG. 10A); assay type: cell-based; conditions: 2 μM Bicalutamide (FIG. 10A)
# [1] = test system: cell lines derived from diverse human and murine tumor types; assay: Testosterone-induced hyperproliferation in a panel of tumor cell lines (FIG. 11); assay type: cell-based
# human WM46 melanoma = assay: WM46 melanoma tumor growth in SCID mice; assay type: in vivo; conditions: for effect on tumors with engineered ZIP9 loss: either male or female mice
# Source text: The tumor-promoting effects of testosterone on early prostate cancer are known, and inhibition of testosterone signaling is a first-line treatment. […] Here it is shown that targeting nonclassical testosterone signaling through ZIP9 is therapeutically useful for cancer (FIG. 13).
# [2] = test system: human melanoma cells (WM46); assay: Cell proliferation of human melanoma cells (WM46); assay type: cell-based; conditions: for proliferation following addition of cations: WM46, over 6-days (FIG. 4D)
# [3] = test system: mouse melanoma cells (YUMM1.7); assay: Cell proliferation of mouse melanoma cells (YUMM1.7); assay type: cell-based
# p-ERK (MAPK activation) = assay: ERK phosphorylation / MAPK activation (Western blot); assay type: cell-based, human
# [4] = test system: primary human melanocytes; assay: Cell proliferation of primary human melanocytes; assay type: cell-based; conditions: androgen treatment (FIG. 3A)
# [5] = test system: human WM46 melanoma cells; assay: Cytosolic zinc influx with Fluo-Zin3 reporter; assay type: cell-based
# YAP = YAP nuclear translocation (Western blot of fractions); assay type: cell-based, human; conditions: WM46, testosterone exposure (FIG. 12B)
# Source text: (§1) (For clarity, this figure highlights only a subset of proteins from the entire data set of 450 proteins at 4 time points). […] FIG. 12B is a Western blot showing that testosterone promotes YAP nuclear translocation in WM46 cells. […] is used as control for the cytosolic fraction; PARP is used as a control for the nuclear fraction.
# When activated, YAP and the related transcription factor TAZ are dephosphorylated and move from the cytosol to the nucleus. […] YAP is a substrate for 14-3-3ε, which sequesters YAP in the cytosol. As 14-3-3ε, was one of the proteins most depleted by testosterone, it is believed, without being bound by theory, that 14-3-3ε loss promotes YAP translocation to the nucleus where it then induces expression of tumor-promoting genes. It is likely that the MAK/ERK changes also contribute to testosterone induced YAP activation, as MEK and ERK1/2 are also major positive YAP regulators.
# [6] = test system: WM46 human melanoma cells; assay: Reverse Phase Protein Array of testosterone-treated melanoma cells; assay type: cell-based; conditions: RPPA, testosterone 0, 30, 60 minutes and 8 hours
# Source text: as §1
# Testosterone induces a rapid, ZIP9 dependent, increase in free cytosolic zinc that is required for the hyperproliferation. Zinc is required for myriad cellular enzymes and associated biologic process making it difficult to hypothesize a priori, what signaling mechanism(s) downstream of ZIP9 mediate the testosterone induced hyperproliferation. A 450 element Reverse Phase Protein Array analysis of human melanoma cells treated with testosterone for 0, 30 minutes, 60 minutes and 8 hours (FIG. 12A) was performed.
# human PDAC = assay: Cell proliferation of human PDAC cells; assay type: cell-based; conditions: human PDAC (FIG. 9C)
# murine PDAC = assay: Cell proliferation of murine PDAC cells; assay type: cell-based, mouse
# ZIP9 = conditions: competitive binding assays; cited from earlier work
# [7] = male SCID mice, 20 mg/kg/day systemic daily (FIG. 13C)
structure (smiles),measurement,setting,value
CC(O)(CS(=O)(=O)c1ccc(F)cc1)C(=O)Nc1ccc(C#N)c(C(F)(F)F)c1 (stereo not shown) [bicalutamide],effect on cell proliferation in the absence of testosterone,melanoma cells,no effect
same,cell lines in which testosterone-induced hyperproliferation is blocked,[1]; FIG. 11,10/12
same,effect on tumors with engineered ZIP9 loss,human WM46 melanoma,no significant effect
same,tumor growth,"human WM46 melanoma; female mice, 30 mg/kg/day via oral gavage (FIG. 13A)",no effect
[Zn+2] [zinc],proliferation following addition of cations,[2],promoted proliferation
"c1ccc(CN(CCN(Cc2ccccn2)Cc2ccccn2)Cc2ccccn2)nc1 [TPEN, N,N,N′,N′-tetrakis (2-pyridinylmethyl)-1,2-ethanediamine]",effect on proliferation on its own,"[2]; WM46, without testosterone (FIG. 4C)",no significant effect
same,effect on testosterone induced proliferation,"[2]; WM46, zinc chelator plus testosterone, 6 days (FIG. 4C)",completely blocked
same,effect on testosterone stimulated proliferation,"[3]; YUMM, zinc chelator plus testosterone (FIG. 7B)",blocked
same,effect on testosterone p-ERK induction,p-ERK (MAPK activation); with testosterone (FIG. 10B),completely blocked
C[C@]12CC[C@H]3[C@@H](CCC4=CC(=O)CC[C@@]43C)[C@@H]1CC[C@@H]2O [testosterone],cellular proliferation,[2],markedly increased cellular proliferation
same,concentration of maximum proliferative response,[2],75 nM
same,proliferation of isogenic clones lacking ZIP9,[2],no effect
same,cellular proliferation,"[3]; mouse melanoma cells, androgen treatment (FIG. 3A)",markedly increased cellular proliferation
same,proliferation of isogenic clones lacking ZIP9,[3]; ΔZIP9 YUMM (FIG. 7B),no effect
same,cellular proliferation,[4],markedly increased cellular proliferation
same,duration of sustained elevation in free cytosolic zinc,"[5]; WM46, in the presence of the androgen (FIG. 4B)",at least 2 days
same,zinc influx,"[5]; WM46, over 5 minutes (FIG. 4A)",rapid zinc influx
same,effect on zinc in cells lacking ZIP9,[5]; ΔZIP9 WM46 (FIG. 7C),no significant effect
same,ERK phosphorylation,p-ERK (MAPK activation); testosterone treatment (FIG. 3B),increases ERK phosphorylation
same,time to YAP movement from cytoplasm to nucleus,YAP,30 to 60 min
same,14-3-3c protein expression,[6],downregulated
same,CDKN2A (p16) protein expression,[6],downregulated
same,YAP1 protein expression,[6],Upregulated
same,phosphorylated ERK (T202; Y204) level,[6],Upregulated
same,proliferation,human PDAC,promotes proliferation
same,response of ΔZIP9 cells in vitro,murine PDAC; mPDAC ΔZIP9 (FIG. 9E),do not respond
same,proliferation,murine PDAC; murine PDAC (FIG. 9C),promotes proliferation
same,proliferative response to testosterone,[1]; MCF7 cells,did not respond
same,proliferative response to testosterone,[1]; U87 cells,did not respond
same,ZIP9 binding specificity / affinity,ZIP9,highly specific
[Fe] [iron],proliferation following addition of cations,[2],Only zinc promoted proliferation
CNC(=O)c1ccc(N2C(=S)N(c3cnc(C#N)c(C(F)(F)F)c3)C(=O)C23CCC3)cc1F [apalutamide],effect on testosterone driven increased proliferation,[2]; WM46 (FIG. 10E),inhibit testosterone driven increased proliferation
same,effect on testosterone dependent-increased proliferation,"[2]; WM46, treated with 204 Apalutamide (so in the source)",reverted
same,effect on tumors with engineered ZIP9 loss,human WM46 melanoma,no significant effect
same,melanoma growth,"human WM46 melanoma; female mice, systemic delivery",no effect
same,survival,human WM46 melanoma; [7],extend survival
same,tumor growth,human WM46 melanoma; [7],inhibits tumor growth
C[C@]12CCC(=O)C[C@@H]1CC[C@@H]1[C@@H]2CC[C@]2(C)[C@@H](O)CC[C@@H]12 [dihydrotestosterone],ZIP9 binding specificity / affinity,ZIP9,relatively low affinity
C[C@]12CCC(=O)C=C1CC[C@@H]1[C@@H]2CC[C@]2(C)C(=O)CC[C@@H]12 [androstenedione],ZIP9 binding specificity / affinity,ZIP9,relatively low affinity
[Mn+2] [manganese],proliferation following addition of cations,[2],Only zinc promoted proliferation
